{"source": "patent US20260193227A1", "about": "“THERAPEUTIC COMPOUNDS AND METHODS” (UNIVERSITY OF IOWA RESEARCH FOUNDATION, priority 2022, published 2026)", "target": "T1, RPA-ssDNA-RAD52 complex (Homo sapiens, UniProt P43351)", "T1 construct": "6xHis; made in house", "T1 sequence (P43351 1-418)": "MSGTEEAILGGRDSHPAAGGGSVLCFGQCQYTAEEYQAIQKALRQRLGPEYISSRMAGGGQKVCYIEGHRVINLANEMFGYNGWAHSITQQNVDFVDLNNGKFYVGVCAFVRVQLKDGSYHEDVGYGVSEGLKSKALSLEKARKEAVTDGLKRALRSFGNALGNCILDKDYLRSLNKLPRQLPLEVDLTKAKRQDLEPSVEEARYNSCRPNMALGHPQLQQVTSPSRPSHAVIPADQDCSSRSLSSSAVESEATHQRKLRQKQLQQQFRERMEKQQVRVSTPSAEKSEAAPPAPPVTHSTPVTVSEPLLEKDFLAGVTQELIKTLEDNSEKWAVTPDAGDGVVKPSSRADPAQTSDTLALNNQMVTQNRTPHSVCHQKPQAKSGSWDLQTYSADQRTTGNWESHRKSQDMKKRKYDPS", "experiment": "FRET-based inhibition of the RPA-ssDNA-RAD52 complex", "assay_type": "binding", "details": "for effect on the RPA-ssDNA-RAD52 complex: FRET titration", "experimental": "Proteins: The 6×His-tagged human RAD52 proteins (wild type and mutants) and untagged human RPA were expressed and purified as previously described in (Hengel S R, eLife. 2016; 5; Grimme J M, et al., Nucleic Acids Res. 2010; 38(9):2917-30; and Henricksen L A, et al., The Journal of biological chemistry. 1994; 269(15):11121-32). RPA and RAD52 protein concentrations were determined by measuring absorbance at 280 nm using extinction coefficients of 88,830 M^−1 cm^−1 and 40,470 M^−1 cm^−1, respectively.\nFRET-based DNA binding and inhibition assays: FRET-based that monitor the RAD52-ssDNA, RPA-ssDNA and RAD52-RPA-ssDNA binding were carried out as previously described (Hengel S R, eLife. 2016; 5; Grimme J M, et al., Nucleic Acids Res. 2010; 38(9):2917-30; and Grimme J M, Spies M. FRET-based assays to monitor DNA binding and annealing by Rad52 recombination mediator protein. Methods in molecular biology (Clifton, NJ). 2011; 745:463-83) using Cary Eclipse Spectrofluorimeter (Agilent) at 25° C., in 5 mm quartz cuvettes, and in buffer containing 30 mM Tris-Acetate (pH 7.5) and 1 mM DTT. Cy3 dye was excited at 530 nm and its emission was monitored at 565 nm. Emission of Cy5 acceptor fluorophore excited through the energy transfer from Cy3 donor is monitored at 660 nm simultaneously with emission of Cy3 dye. Both the excitation and the emission slits were set to 10 nm. All experiments were carried out using 1 nM (molecules) Cy3-dT30-Cy5 ssDNA. The optimal concentrations of the RAD52 (6 nM) and RPA (1 nM) proteins were selected by titrating the respective protein into 1 nM Cy3-dT30-Cy5 solution, and chosen based on the largest separation of the FRET values corresponding to the protein bound and free DNA.\nThe inhibition of the RAD52-ssDNA, RPA-ssDNA and RAD52-RPA-ssDNA complexes was evaluated by titrating each compound to the respective complex, measuring Cy3 and Cy5 fluorescence, and calculating FRET as previously described (Hengel, S. R., et al., eLife, 5).\nSpectral properties of many compounds overlapped with the Cy3 and Cy5 fluorescence. To correct the calculated FRET values for the compound signal, the fluorogenic compounds were titrated into buffer and into solution of 1 nM Cy3-dT30-Cy5. For all tested compounds, the change in the signal in the Cy3 and Cy5 channels with and without Cy3/Cy5-labeled DNA present was the same. […] To account for the dye fluorescence, for each compound concentration, the apparent change in FRET of the ssDNA in the presence the compound was subtracted from the respective FRET signal of the RAD52-ssDNA, RPA-ssDNA or RAD52-ssDNA-RPA complex at the same inhibitor concentration. The IC50 values were calculated by fitting the corrected FRET data to the four-parameter dose response model using GraphPad Prism. All data are shown as average for at least three independent experiments ±standard deviation. The IC50 values are presented with their respective fitting error."}
{"smiles": "O=C(Cn1cccc([N+](=O)[O-])c1=O)c1c[nH]c2ccccc12", "note": "[Example 1]", "values": [{"measurement": "effect on the RPA-ssDNA-RAD52 complex", "result": "yields FRET values corresponding to the free ssDNA"}]}
{"smiles": "COc1ccccc1NS(=O)(=O)c1cc(C(=O)O)ccc1C", "note": "[Example 8]", "values": [{"measurement": "effect on the RPA-ssDNA-RAD52 complex", "result": "decreases the FRET values of the RPA-ssDNA-RAD52 complex"}, {"measurement": "fold lower IC50 for the RPA-ssDNA-RAD52 complex than for the RAD52-ssDNA complex", "setting": "wild type RAD52", "result": 6, "unit": "fold"}]}
